Source: patent US20230175195A1, “PLASMA COATING TREATMENT METHOD FOR INHIBITING BIOLOGICAL PATHOGEN TRANSFER” (MOLECULAR PLASMA GROUP S.A., priority 2020, published 2023)
Like-named read-outs stand apart in the source and are kept apart here.

What was measured:
Bacteriophage MS2 = experiment: Viral load reduction test per ASTM E2721-16 with MS2 instead of Influenza A, on plasma-coated substrate; assay type: cell-based
[1] = test system: Escherichia coli (gram-negative); experiment: Quantitative antibacterial activity test of treated materials (OECD guideline, ISO 22197/20743), gram-negative
Text: The coatings in the tests described below were obtained using a PlasmaSpot® by Molecular Plasma Technology, using a power around 100 W (but any power between 60-450 W can work), a voltage about 15 kV (but any voltage between 5 and 25 kV seems to work), a frequency about 60 kHz, plasma gas N2, (but also N2, He, Ar, even air and mixtures thereof can be used), a plasma gas flowabout 100 slm (but any plasma flow between 10 and 250 slm can be used), the precursor injected as aerosol (but a liquid precursor, gas precursor, a mixture of liquids, solutions, dispersions, etc . . . also work well), a working distance about 8 mm (but any working distance between 1 and 20 mm seems to work), a temperature about room temperature.
Further tests were performed to illustrate antibacterial behaviour. Tests were performed on a polypropylene nonwoven (PPNW) substrate having a density of 25 g/m^2, which is commonly used as the outer layer of a surgical face mask, and on the synthetic textile Tyvek®.
Droplets containing bacterial suspension are placed on the treated material and evaluated after an incubation period. After the incubation, the bacteria are recovered from the tested material by washing it with a recovery medium. This recovery medium is then analysed for presence of the pathogen by incubation of the recovery medium on agar plates.
The bacteriae used in the testing were Staphylococcus aureus (gram-positive) and Escherichia coli (gram-negative).
The test is based on the international standard given by OECD guidelines for testing of chemicals based on ISO standards 22197/20743: Quantitative method for evaluating antibacterial activity of porous and non-porous antibacterial treated materials.

[2] = test system: Staphylococcus aureus (gram-positive); experiment: Quantitative antibacterial activity test of treated materials (OECD guideline, ISO 22197/20743), gram-positive; assay type: cell-based, S. aureus ATCC6538P
[3] = plasma coating of the precursor on Tyvek substrate, MS2 phages, LOD = limit of detection
[4] = plasma coating on PPNW substrate (polypropylene nonwoven, 25 g/m^2)
[5] = plasma coating on synthetic textile substrate (Tyvek)

Compound	LOG Reduction (Bacteriophage MS2; [3])	% Gram− bacteria reduced [1, 4] [%]	Gram− log reduction [1, 4]	% Gram− bacteria reduced [1, 5] [%]	Gram− log reduction [1, 5]	% Gram+ bacteria reduced [2, 4] [%]	Gram+ log reduction [2, 4]	% Gram+ bacteria reduced [2, 5] [%]	Gram+ log reduction [2, 5]	LOG Reduction (Bacteriophage MS2)
CCCCCCCCCCCCCCCCCC[N+](C)(C)CCC[Si](OC)(OC)OC.[Cl-] [SiQAM, Dimethyloctadecyl[3-(trimethoxysilyl)propyl] ammonium chloride]	1.56	>99.9996	>5.4	>98.7	>1.9	>99.994	>4.2	>99.95	>3.3	–
Benzalkonium chloride	–	99.9996	5.4	98.7	1.9	>99.994	>4.2	>99.5	>3.3	>3.8 (LOD)
Citric Acid	>5.0 (LOD)	>99.999	>5.0	97.5	1.6	>99.995	>4.3	>99.98	>3.8	–
PVP-I2 Poly(vinylpyrrolidone)-Iodine complex [reference compound]	–	>99.9996	>5.4	–	–	>99.994	>4.2	–	–	–
